A melting point compilation (Tetko et al.; mined from patent text by program, amines drawn as free bases though some values may be those of a salt)

Row | SMILES | melting point [°C]
1 | CCN(CC)CCc1nc(Cn2cnc3c2c(=O)n(C)c(=O)n3C)no1 | 69 to 70
2 | COc1ccc(Sc2ccncc2)c([N+](=O)[O-])c1 | 57 to 59
3 | CO[C@@H]1[C@@H](OC)[C@H](C)O[C@@H](OC(=S)Nc2ccc(-c3nccn3-c3ccc(OC(F)(F)F)cc3)cc2)[C@@H]1OC | 129
4 | Cc1cc(C(=O)O)ccc1C#CCc1ccc2c(c1)C(C)(C)CCC2(C)C | 196 to 197
5 | CSc1nn2c(O)cc(CN(C)C)nc2c1S(=O)(=O)c1ccccc1 | > 220
6 | CC(=O)SCCC(=O)NC1(C(=O)O)CCCC1 | 127 to 128
7 | Cn1c2ccccc2c2c(C(=O)O)c(C(=O)O)ccc21 | 294
8 | C#Cc1c(N)nc(-c2ccc(Cl)c(OC)c2F)nc1C(=O)OC | 174 to 176
9 | O=P(O)(O)C1CCCN1 (configuration not stated) | 275 to 280
10 | Cc1ccc2cccc(OCc3c(Cl)ccc(S(=O)(=O)NC(C)(C)C)c3Cl)c2n1 | 191
11 | CCCC(=O)NS(=O)(=O)c1ccc(C(=O)/C=C/c2cc(N3CCCC3)c(OC)cc2OC)cc1 | 193 to 195
12 | CCOC(=O)c1cc2ccc3c(c4ccccc4n3CC)c2n1C | 116
13 | COc1ccc(C(=O)Nc2cc(C(=O)NCc3ccccc3)ccn2)cc1 | 165 to 166
14 | CC(C)(C)[Si](C)(C)N1C(=O)[C@@H](N2C(=O)c3ccccc3C2=O)[C@H]1/C=C/c1ccccc1 (relative stereo) | 167 to 168
15 | O=c1[nH]c2cc(Cl)ccc2c(=O)n1S(=O)(=O)c1ccccc1Cl | 275 to 276
16 | Brc1cc(C=Cc2scc3c2OCCO3)ccn1 | 127 to 129
17 | O=C1NC(C(=O)O)CCCCCCCCCCC1CS (configuration not stated) | 170 to 172
18 | O=C(Nc1ccc(C(=O)N2Cc3ccccc3Cc3ccccc32)cc1)c1ccc(Cl)cc1Cl | 212 to 215
19 | Cc1cccc(CC(Nc2ccc3c(c2)C(=O)OC3)C(=O)NC(C#N)CCCCc2cccc(C(=O)O)c2)c1 (configuration not stated) | 91 to 94
20 | Cc1nc(N2CCN(Cc3ccccc3)C2=O)sc1C(=O)NCc1ccccn1 | 149 to 151
21 | CC(C)COC(=O)NC1=NCC(c2ccccc2)N1C (configuration not stated) | 103 to 104
22 | CC1(C)C(=O)Nc2cc3[nH]c(CCC(=O)O)nc3cc21 | 130 to 135
23 | COCOc1ccc2c(c1)OC(C)(C)CC2=O | 77 to 79
24 | CC1=CC(C)(C)OC1=O | 54 to 55
25 | CCCCC(NC(=O)C1CC1(C)C)C(=O)OC(C)(C)C (racemic) | 52 to 65
26 | O=[N+]([O-])c1ccc(C2CCc3c(CCCCCCO)n[nH]c3C2)cc1 (configuration not stated) | 69 to 70

Row | SMILES | melting point [°C]
27 | CCC(C)(C)c1cc(-c2cccc(CC3SC(N4CCOCC4)=NC3=O)c2)ccc1O (configuration not stated) | 74 to 77
28 | CS(=O)(=O)c1ccc(-n2cncc2-c2ccc(Cl)cc2)cc1 | 192 to 193
29 | CC(C)(C)C(=O)C(CS(=O)(=O)c1ccc(Cl)cc1)n1cncn1 (configuration not stated) | 134
30 | Cc1ccc(C=NNc2ccc(S(N)(=O)=O)cc2)cc1 | 216 to 218
31 | N#Cc1ccccc1C1=CC2CC(=O)CC2C1 (configuration not stated) | 36 to 37
32 | CC=CCNc1cc(C(=O)O)cc(S(N)(=O)=O)c1Sc1ccc(NC(C)=O)cc1 | 148
33 | O=c1nc(-c2ccccn2)sc2ccc(F)cc12 | 240
34 | COC(=O)c1ccsc1 | 84 to 85
35 | CC12CCC(O)CC1CCC1C2CCC2(C)C(OCCO)CCC12 (configuration not stated) | 181 to 183
36 | C=C1CC(C=CC(O)CCCCC)C(O)(Cc2cccc(OCc3ccccc3)c2)C1 (configuration not stated) | 58
37 | N#Cc1ccccc1C(C#N)c1ccc(F)cc1 (configuration not stated) | 87 to 89
38 | NC(=O)N1C(=O)C(C(=O)c2cccs2)c2ccncc21 (configuration not stated) | 213 to 215
39 | CNC1(c2ccccc2Cl)C(=O)Nc2ccc(F)cc21 (configuration not stated) | 188 to 189
40 | Cc1cc2oc(-c3ccccn3)nc2cc1N=C=S | 192 to 194
41 | COC(=O)C1CCC2C3CCC4CC5OC5CC4(C)C3C(=O)CC12C (configuration not stated) | 140 to 145
42 | O=C1CCC(c2ccc(CCCCCNC(=O)c3cccnc3)cc2)=NN1 | 133 to 134
43 | CC1(C)c2ccccc2C(C)(C)C1(S)CCO | 85 to 87
44 | COc1ccc(CC(=O)NCc2ccccc2-c2ccccc2C(=O)NCc2ccc(F)cc2F)cc1 | 138
45 | O=C(O)C1=Cc2cc(Cl)cc(-c3ccccc3)c2OC1C(F)(F)F (configuration not stated) | 196 to 198
46 | CC(C)c1nc(-c2cccs2)cc(-c2ccc(F)cc2)c1C=O | 123 to 125
47 | Nc1ccc(Sc2ncccn2)cc1 | 124 to 126
48 | Cc1nc2cc3c(cc2s1)C1(CO3)C(=O)N(Cc2ncc(Cl)n2C)c2ccccc21 (configuration not stated) | 177 to 178
49 | CCOC(=O)c1c(Cn2cnnc2)nc2cc(OC)c(OC)cc2c1-c1ccc(OC)c(OC)c1 | 226 to 227
50 | COC(=O)[C@@H](NC(=O)OCc1ccccc1)C(C)C | 54 to 56
51 | COc1ccc(OC(=O)c2c(Cl)cccc2Cl)cc1OC1CCCC1 | 100 to 101
52 | COc1cc(-c2ccccc2Cl)c(Cl)cc1C(=O)N1Cc2ccc(C(=O)N(C)Cc3cccnc3)n2Cc2ccccc21 | 196 to 198

Row | SMILES | melting point [°C]
53 | COC(=O)c1ccc2occ(-c3cc(F)ccc3F)c2c1 | 161 to 162
54 | Cc1ccc(C(=O)Nc2cccc(C(F)(F)F)c2)cc1-c1ccc2cnncc2c1 | 270 to 272
55 | Cc1ccc(S(=O)(=O)OCC2CCc3sc(C)nc3C2)cc1 (configuration not stated) | 105 to 106
56 | CCCCCc1ccc(C(=O)CCC(=O)O)cc1 | 98 to 100
57 | CC(C)COc1ccccc1OCCOS(C)(=O)=O | 59 to 61
58 | CC(=O)NCC1CN(c2ccc(N3CCN(c4nc(C)ns4)CC3)c(F)c2)C(=O)O1 (configuration not stated) | 168 to 170
59 | COC(=O)c1ccc(Cn2cc(/C=C/C(=O)N3CCCC3)c3ccc(/C=C/C(=O)N4CCCC4)cc32)c(OC)c1 | 226 to 228
60 | CC(C)c1ccc(-c2nnc(-c3cccc(C(=O)O)c3)o2)cc1 | 202 to 204
61 | CC(C)(CCl)C(=O)NO | 148 to 151
62 | CCOC(=O)c1ccc(Oc2ccc(C(C)=C3SCCCS3)cc2)cc1 | 57 to 58
63 | CC(=O)NCc1ccc(CN2CCN(c3ccc(F)cc3)CC2)cc1 | 164 to 166
64 | COC(=O)c1cc(NS(C)(=O)=O)ccc1OC | 82 to 83
65 | CC(C)c1nn(-c2ccc(C(F)(F)F)cn2)cc1CCCCOc1ccc(CCC(=O)O)cc1 | 144 to 145
66 | O=C(Nc1ccc(C(=O)N2CCCc3ccccc32)cc1)c1cccc(O)c1 | 217 to 218
67 | CN1C(=O)CSC1c1cccnc1 (configuration not stated) | 96.5 to 97.5
68 | O=C1NN=C(c2ccc(NC(=O)C3CC3(Cl)Cl)cc2)C2CC12 (configuration not stated) | 264 to 265
69 | Cc1cccc(CCCCCCCCC(=O)Cl)c1 | 96 to 98
70 | Cc1ccccc1C(F)(F)C(F)(F)c1ccccc1C | 71.5 to 73.5
71 | CC(=O)OCC1OC(n2c(Cl)nc3cc(Cl)ccc32)C(OC(C)=O)C1OC(C)=O (configuration not stated) | 98 to 100
72 | CCCCCCC(NC(=O)OCc1ccccc1)P(=O)(O)CC(=O)OC (configuration not stated) | 260 to 268
73 | COC(C)(C)C(C#N)=NOCc1coc(-c2ccc(F)cc2)n1 | 75 to 77
74 | CN(C(=O)Nc1ccccc1CCc1cc(C(C)(C)C)c(O)c(C(C)(C)C)c1)C1CCN(Cc2ccccc2)CC1 | 144 to 146
75 | COc1ccc2nc3ccc(C(=O)N(C)C)cn3c(=O)c2c1 | 190 to 196
76 | Cn1c(C(F)F)nn(-c2cc(OCC(N)=O)c(Cl)cc2Cl)c1=O | 190 to 194
77 | CC(CF)(CF)C(=O)NC(CO)c1ccc(C(C)(C)C)cc1 (configuration not stated) | 141
78 | CO[C@@H]1COCC[C@]1(OC)c1cccc(OCc2ccc3ccccc3c2)c1 (racemic) | 86 to 88

Row | SMILES | melting point [°C]
79 | O=S1(=O)NCN(C2CC2)c2cccc(Br)c21 | 189 to 191
80 | CS(=O)(=O)c1ccc(-c2cc(C(CCCO[N+](=O)[O-])=NO)nn2C2CCCCC2)cc1 | 121 to 123
81 | O=C(O)c1nc2c(=O)[nH]c3cc(C(F)(F)F)ccc3n2c1CNCc1ccccc1 | 248
82 | CC(C)Oc1n[nH]c2nc(Oc3ccc(F)cc3F)ncc12 | 144 to 145
83 | O=[N+]([O-])c1ccc(S(=O)(=O)NCCc2ccccc2)c([N+](=O)[O-])c1 | 127 to 128
84 | O=Cc1ccc2nccnc2c1 | 134
85 | Cn1c(=O)c(-c2c(Cl)cccc2Cl)cc2cnc(Nc3ccc(CC(=O)O)cc3)nc21 | 286 to 290
86 | COC(CN(C)C(=O)Nc1cc(C(C)(C)C)on1)OC | 80 to 84
87 | COc1cc(N)c(Cl)cc1C(=O)NCC1CCN(CCCCCNC(=O)Nc2ccccc2)CC1 | 214 to 217
88 | COc1ccc(CN(Cc2ccc(OC)cc2)c2nc(-c3ccccc3)c(-c3ccc(=O)n(C(C)C)n3)nc2C#N)cc1 | 207 to 209
89 | Nc1c(NCCCO)c(=O)c1=O | 256 to 258
90 | CCOc1cc(-c2cc(C(F)(F)F)nc(Cl)n2)ccc1C(F)(F)F | 89
91 | CNS(=O)(=O)/C=C/c1cc(Cl)cnc1N | 194 to 198
92 | COC(=O)[C@@H]1O[C@@H](c2ccccc2)N(NS(=O)(=O)c2c3ccccc3cc3ccccc23)[C@H]1c1ccccc1 | 71 to 73
93 | CCCS(=O)(=O)NCCCCn1c(=O)c2c(C)nc3cccc1n32 | 150 to 151
94 | Cc1ccc(S(=O)(=O)N=CN(C)C)cc1Br | 162
95 | COc1cccc2c(-c3ccnc(N[C@H]4CC[C@H](O)CC4)n3)n[nH]c12 | 243 to 245
96 | CC(C)(CCCc1cccnc1)NC(=O)/C=C/C=C(c1ccc(F)cc1)c1ccc(F)cc1 | 164
97 | Cc1oc2c(C(O)CO)cccc2c1C (configuration not stated) | 93 to 95
98 | COc1cc(C=C(C=O)C(C=O)=Cc2ccc(O)c(OC)c2)ccc1O | 177 to 178
99 | NC(=O)c1ccnc(Cl)n1 | 152 to 154
100 | COc1c(OC)c(OC(C)=O)c2cc(Cl)ccc2c1O | 106 to 107
101 | CC(=O)Nc1nc(CCc2ccc(CCBr)cc2)cs1 | 153 to 154
102 | CC(O)CC#Cc1cc(CN2CCOCC2)cc2c(=O)c(C(=O)NCc3ccc(Cl)cc3)cn(C)c12 (configuration not stated) | 178 to 180
